According to EP0913397B1, “A proces for the synthesis of 1-(4-Arylpiperazine-1-y1)-3-(2-oxypyrrolidin/piperidin-1-yl)propanes as therapeutic agents for hypertension, ischemia, cardiovascular and other adrenergic receptors related disorders” (COUNCIL OF SCIENTIFIC AND INDUSTRIAL RESEARCH, priority 1997, dated 1999):

Experiments:
[1] = system: anaesthetized (pentobarbitone sodium 35 mg/kg i.v.) cat; assay: Effect on blood pressure and adrenaline vasopressure response in anaesthetized cat (Table 2); assay type: in vivo
Procedure: Table 2: Effect on blood pressure, heart rate and adrenaline vasopressure response at an anaesthetized (pentobarbitone sodium 35 mg/kg i.v.) cat.
(§1) • (a) Cats (2.6-4.0 kg) of either sex anaesthetized with pentobarbitone sodium ([…] i.v.) and showing basal mean arterial blood pressure below 150 mm (Hg) were categorised as normotensive and above 150 mm Hg as hypertensive. Arterial blood pressure (BP) was recorded from one of the carotid artery through a stathum P23 DC pressure transducer and 7P1 low level DC preamplifier on a Grass Model P7 Polygraph, Signals from 7P 1 preamplifier were used to trigger 7P4 Tachograph preamplifier for recording the heart rate (HR). Right femoral vein and Trachea were cannulated for intravenous injections and artificial ventilation respectively. Control responses to intravenous injection of noradrenaline (2-4 ug); acetyl choline (1-2 ug); histamine (1-2 ug) and isoprenaline (1-2 ug) were taken before and after the administration of test doses of each compounds.

[2] = system: Langendorff perfused rat heart preparation; assay: Cardioprotective activity, Langendorff perfused rat heart, prolonged period of ischemic insult
Procedure: Further, in Langendorff perfused rat heart preparation subjected to even up to 90 min. global ischemia, the compound at 0.001 ug/ml conc. given at the time of reperfusion revived normal rhythmic contraction started within 2 min. (Table 1) and incidence of reperfusion induced arrhythmia were abolished. Table 1: Compound administered at the time reperfusion at the dose of 0.001 ug/ml on prolong period (90min.) of ischemic insult.
The rats were killed by decapitation, heart were rapidly excised and placed in ice-cold HEPES tyrode buffer. Then isolated hearts were perfused retrogradely through coronary arteries using the Langendorff technique. The perfusion buffer consisted (in mM) NaCl 137, KCl 5.4, CaCl2 1.8, MgCl 2 1.0, glucose 11.2 and HEPES 3.0. The buffer (pH 7.4) was continuously gassed with oxygen and maintained at 37°C. Coronary flow rate was maintained at 10 ml/min. The heart contracted spontaneously. The perfused heart was allowed to equilibrate for 30 min. before initiation of any insult protocol. The test compounds were given at the time of reperfusion. Some of the compounds were dissolved in ethanol. Final concentration of ethanol in the perfusion buffer was 0.0001% and had no effect of its own on the parameter used. • (a) For brief period of ischemic insult (Hideo et al. Pathophysiology and pathogenesis of stunned myocardium. J. Clin. Invest., 79, 950-961, 1987). Ischemia was initiated by stopping the flow for 16 min. followed by 30 min. reperfusion period. The durations were decided on the initial pilot experiments leading to 50% recovery of function. • (b) For prolong period of ischemic insult (Becker, L.C. & Ambrosio, G. Myocardial consequences of reperfusion Prog. Cardiovas. Dis., 30, 23-44, 1987). Ischemia was initiated by stopping the flow for […] by 30 min. reperfusion.

cat = assay: In vivo drug antagonism studies in cat; details: 2 uMol dose i.v. in cat
Normotensive cat = assay: Effect on blood pressure, heart rate and adrenaline vasopressor response, anaesthetized normotensive cat; assay type: in vivo; details: 10 uMol/kg i.d.
Procedure: (§2) 2. Effect on blood pressure, heart rate and adrenaline vasopressor response of anaesthetized (pentobarbitone sodium 40 & 60 mg/kg i.p. in cat and rat respectively) normotensive & hypertensive rat & cat model preparations.
as §1

[3] = system: Isolated Guinea pig ileum preparation; assay: Isolated Guinea pig ileum preparation, antihistaminic activity; details: 0.5-5.0 ug/ml
[4] = system: histamine induced bronchoconstriction; assay: Konzett and Rossler preparation
[5] = system: Hypertensive rat model preparation; assay: Effect on blood pressure, heart rate and adrenaline vasopressor response, anaesthetized hypertensive rat model preparation; assay type: in vivo
Procedure: as §2, §1

Isolated aortic strip = assay: Isolated aortic strip, endothelin induced contraction
[6] = system: Rat aortic ring preparation; assay: Rat aortic ring preparation, NE induced contraction
[7] = 0.001 ug/ml given at the time of reperfusion, up to 90 min. global ischemia

CCc1ccccc1N1CCN(CCCN2CCCCC2=O)CC1 [Ar=C6H4-2-C2H5, n=2, 1-[4-(Z-ethylphenyll)piperazin-1-yl]-3-[2-oxopiperidin-1-yl]propane]
B. P. fall % ([1]; 2.0 umol/kg i.v.): 35%
Dur. ([1]; 2.0 umol/kg i.v.): 55 min
Adrenaline vasopressure response % inhibition ([1]; 10.0 umol/kg i.v.): R (R=Reversal)
B. P. fall % ([1]; 10.0 umol/kg i.v.): 20%
Dur. ([1]; 10.0 umol/kg i.v.): 63 min

COC(=O)C1=C(C)NC(C)=C(C(=O)OC)C1c1ccccc1[N+](=O)[O-] [Nifedipine, reference compound]
Onset ([2]; 10^-6M, ischemic insult 45 min.): 2.5 min

CCc1ccc(N2CCN(CCCN3CCCC3=O)CC2)cc1 [Ar=C6H4-4-C2H5, n=1, 1-[4-(4-ethylphenyl)piperazin-1-yl]-3-[2-oxopyrrolidin-1-yl]propane]
Dur. ([1]; 2.0 umol/kg i.v.): Tr

O=C1CCCN1CCCN1CCN(c2ccc(F)cc2)CC1 [Ar=C6H4-4-F, n=1, 1-[4-(4-fluorophenyl)piperazin-1-yl]-3-[2-oxopyrrolidin-1-yl]propane]
reduction of the fall in blood pressure (cat; glibenclamide pretreatment): only partially reduced
reduction of antihypertensive effect (cat; pretreatment with Dup-753): 33%
alteration of antihypertensive effect (cat; pretreatment with atropine sulphate): failed to alter
alteration of antihypertensive effect (cat; pretreatment with mepyramine maleate): failed to alter
alteration of antihypertensive effect (cat; pretreatment with propranolol): failed to alter
alteration of antihypertensive effect (cat; pretreatment with yohimbine): failed to alter
Heart rate Pre/post treatment (post) (Normotensive cat; post treatment): 170 beats/min
Heart rate Pre/post treatment (pre) (Normotensive cat; pre treatment): 200 beats/min
antihistaminic activity [3]: significant antihistaminic activity
incidence of reperfusion induced arrhythmia [2, 7]: abolished
time to start of normal rhythmic contraction [2, 7]: ≤ 2 min
antihistaminic activity against histamine induced bronchoconstriction [4]: some antihistaminic activity
Heart rate Pre/post treatment (post) ([5]; 5 uMol/kg i.d.): 320 beats/min
Heart rate Pre/post treatment (post) ([5]; 10 uMol/kg i.d.): 340 beats/min
Heart rate Pre/post treatment (pre) ([5]; 20 uMol/kg i.d., pre treatment): 310 beats/min
Endothelin induced contraction (Isolated aortic strip): inhibited significantly
Response to endothelin after washing the preparation (Isolated aortic strip; after washing): relaxation rather than contraction
NE induced contraction [6]: inhibited

O=C1CCCCN1CCCN1CCN(c2cccc(C(F)(F)F)c2)CC1 [Ar=C6H4-3-CF3, n=2, 1-[4-(3-trifluoromethylphenyl)piperazin-1-yl]-3-[2-oxopiperidin-1-yl]propane]
Dur. ([1]; 10.0 umol/kg i.v.): Tr
